Measurements from US6413764B1, “Human metabotropic glutamate receptors, nucleic acids encoding same and uses thereof” (Merck & Co., Inc., priority 1993, dated 2002).
Like-named read-outs stand apart in the source and are kept apart here.

Columns and labels:
[1] = target: T1, human mGluR5a receptor (Homo sapiens, UniProt P41594); assay: Automated fluorescence assay (fluo-3) in transiently transfected HEK 293 cells; format: cell-based; design: expressed in transfected cells; host or cells: HEK 293 cells, transient CaPO4 transfection
Protocol: HEK 293 cells were transiently transfected with DNA encoding mGluR5a (constructs mGluR5a2 and mGluR5a3 and construct MMTV-hmGluR5a) receptors. Approximately 2×10^6 HEK cells were transiently transfected with 5-18 μg (or 0.18 μg in some transfections, see Example 3.C.2.) of the indicated plasmid according to standard CaPO4 transfection procedures [see Wigler et al. (1979) Proc. Natl. Acad. Sci. USA 76:1373-1376]. In addition, 0.5-2 μg (or 0.18 μg in some transfections, see Example 3.C.2) of plasmid pCMVβgal (Clontech Laboratories, Palo Alto, Calif.), which contains the Escherichia coli β-galactosidase gene fused to the CMV promoter, were co-transfected as a reporter gene for monitoring the efficiency of transfection. The transfectants were analyzed for β-galactosidase expression by direct staining of the product of a reaction involving β-galactosidase and the X-gal substrate [Jones (1986) EMBO 5:3133-3142]. Transfectants can also be analyzed for β-galactosidase expression by measurement of β-galactosidase activity [Miller (1972) in Experiments in Molecular Genetics, pp.352-355, Cold Spring Harbor Press].
HEK 293 cells that were transiently transfected with 5 μg of MMTV-hmGluR5A were co-transfected with 5 μg of pRShGR (ATCC accession no. 67200) which contains DNA encoding a glucocorticoid receptor operatively linked to the Rous Sarcoma virus (RSV) LTR promoter. Co-expression of glucocorticoid receptors in these cells should insure that induction of expression of the MMTV promoter-mGluR5a DNA occurs upon addition of glucocorticoid (e.g., dexamethasone) to the cells.
Untransfected HEK 293 cells (or HEK 293 cells transiently transfected with pCMV-T7-3) and HEK 293 cells that had been transfected with mGluR5a-encoding DNA were plated in the wells of a 96-well microtiter dish (Nunc Catalog No. 1-6708, distributed by Alameda Industries, Escondido, Calif.) that had been precoated with poly-L-lysine at a density of 2×10^5 cells/well and loaded with fluo-3 by incubation for 2 hours at 20° C. in a medium containing 20 μM fluo-3, 0.2% Pluronic F-127 in HBS (125 mM NaCl, 5 mM KCl, 1.8 mM CaCl2, 0.62 MM MgCl2, 20 mM glucose, 20 mM HEPES, pH 7.4). The cells were then washed with assay buffer (i.e. HBS). The microtiter dish was then placed into a fluorescence plate reader (e.g., Fluoroskan II, Lab Products International, Ltd., Raleigh, N.C.), and the basal fluorescence of each well was measured and recorded before addition of metabotropic receptor-modulating compounds such as quisqualate, glutamate, trans-ACPD (1-amino-cyclopentane-1,3-dicarboxylic acid), 1S,3R-ACPD, AP3 (2-amino-3-phosphonopropionate) AP5 (2-amino-5-phosphonopentanoate), and CNQX (6-cyano-7-nitroquinoxaline-2,3-dione) to the wells. The fluorescence of the wells was monitored repeatedly (75 readings at 0.63-sec intervals) following addition of agonist.

[2] = target: T1, human mGluR5a receptor; assay: Phosphatidylinositol hydrolysis (IP1) assay in HEK 293 cells transiently transfected with mGluR5a3; format: cell-based; design: expressed in transfected cells; host or cells: HEK 293 cells, transient CaPO4 transfection
Protocol: HEK 293 cells that had been transiently transfected with mGluR5a3 were plated in 24-well microtiter plates at a density of 8×10^5 cells/well. After the cells were allowed to settle and adhere to the bottom of the plate for a few hours, 2 μCi of [^3H]-myo-inositol (Amersham catalog # PT6-271, Arlington Heights, Ill.; specific activity=17.7 Ci/mmol) was added to each well and incubated overnight at 37° C. The next day, the cells were examined under a Nikon Diaphot inverted microscope to assess the health of the cells morphologically as well as to determine if the wells contained a confluent layer of cells. Media was then aspirated and the cells were washed twice with 0.5 ml Krebs bicarbonate buffer [117.9 mM NaCl, 4.72 mM KCl, 2.54 mM CaCl2, 1.18 mM MgSO4, 1.19 mM KH2PO4, 25 mM NaHCO3, 11.1 mM dextrose (equilibrated with 95% O2, 5% CO2, pH 7.4)]. The cells were incubated for 45 min. at room temperature. The buffer was then aspirated from each well and the cells were washed and incubated in 0.5 ml/well for 45 min at room temperature. The buffer was aspirated from each well, and the cells were then incubated for 20 min at 37° C. with 450 μl Krebs-bicarbonate buffer containing 10 mM LiCl instead of 10 mM NaCl (to block hydrolysis of IP1 to inositol and inorganic phosphate) and 10 mM unlabeled myo-inositol.
To begin treatment of the cells with metabotropic receptor-modulating compounds, 50 μl of Krebs-bicarbonate buffer (control) or 10× the final concentration of the compound was added to each well and the incubation was continued for 40 min. Incubation was terminated by addition of 1 ml ice-cold methanol to each well.
In order to isolate IP1 from the cells, the cells were removed from the plates by scraping with plastic pipette tips, and the cell suspension was transferred to 12×75 mm glass tubes. The tubes were thoroughly vortexed, and a 150-μl aliquot, i.e., one-tenth of the total volume, of each reaction mixture was transferred to another tube for protein determination. The water-soluble inositol phosphates were separated from the radiolabelled membrane phospholipids by extraction in 1 ml chloroform. The tubes were incubated at room temperature for 30 min before centrifugation at 500×g for 5 min at 4° C. The aqueous (top) layer containing the [^3H]-inositol phosphates was transferred to 10-ml syringes connected to Accell QMA SEP-PAK columns (Millipore; Calif.), which were attached to an Amersham Superseparator apparatus that was modified to allow collection into 20-ml scintillation vials. Water (10 ml) was added to the cartridge to remove [^3H]-inositol precursor, followed by 4 ml 0.02 M triethylammonium hydrogen carbonated buffer (TEAB, Fluka; N.Y.). To separately remove [^3H]-IP1, [^3H]-IP2 and [^3H]-IP3 from the cartridge, 4 ml of 0.1 M TEAB, 4 ml of 0.3 M TEAB and 4 ml of 0.4 M TEAB were sequentially added to the cartridge and the separate eluate fractions were collected in large scintillation vials. Ecolume cocktail (15 ml; ICN; California) was added to each vial for subsequent scintillation counting to determine the amount of each IP in the separate fractions. Protein concentration was determined using the Bio-Rad Protein Micro-Assay (Bio-Rad, Richmond, Calif.).

[3] = HEK 293 transiently transfected with mGluR5a3 or MMTV-hmGluR5a, fluo-3
[4] = cells transfected with mGluR5a3, varying amounts of compound
[5] = 1 mM, HEK 293 transfected with 0.18 μg of mGluR5a3
[6] = varying amounts of compound, cells transfected with mGluR5a3

T1 sequence (P41594 21-1180 isoform P41594-2 limits assumed): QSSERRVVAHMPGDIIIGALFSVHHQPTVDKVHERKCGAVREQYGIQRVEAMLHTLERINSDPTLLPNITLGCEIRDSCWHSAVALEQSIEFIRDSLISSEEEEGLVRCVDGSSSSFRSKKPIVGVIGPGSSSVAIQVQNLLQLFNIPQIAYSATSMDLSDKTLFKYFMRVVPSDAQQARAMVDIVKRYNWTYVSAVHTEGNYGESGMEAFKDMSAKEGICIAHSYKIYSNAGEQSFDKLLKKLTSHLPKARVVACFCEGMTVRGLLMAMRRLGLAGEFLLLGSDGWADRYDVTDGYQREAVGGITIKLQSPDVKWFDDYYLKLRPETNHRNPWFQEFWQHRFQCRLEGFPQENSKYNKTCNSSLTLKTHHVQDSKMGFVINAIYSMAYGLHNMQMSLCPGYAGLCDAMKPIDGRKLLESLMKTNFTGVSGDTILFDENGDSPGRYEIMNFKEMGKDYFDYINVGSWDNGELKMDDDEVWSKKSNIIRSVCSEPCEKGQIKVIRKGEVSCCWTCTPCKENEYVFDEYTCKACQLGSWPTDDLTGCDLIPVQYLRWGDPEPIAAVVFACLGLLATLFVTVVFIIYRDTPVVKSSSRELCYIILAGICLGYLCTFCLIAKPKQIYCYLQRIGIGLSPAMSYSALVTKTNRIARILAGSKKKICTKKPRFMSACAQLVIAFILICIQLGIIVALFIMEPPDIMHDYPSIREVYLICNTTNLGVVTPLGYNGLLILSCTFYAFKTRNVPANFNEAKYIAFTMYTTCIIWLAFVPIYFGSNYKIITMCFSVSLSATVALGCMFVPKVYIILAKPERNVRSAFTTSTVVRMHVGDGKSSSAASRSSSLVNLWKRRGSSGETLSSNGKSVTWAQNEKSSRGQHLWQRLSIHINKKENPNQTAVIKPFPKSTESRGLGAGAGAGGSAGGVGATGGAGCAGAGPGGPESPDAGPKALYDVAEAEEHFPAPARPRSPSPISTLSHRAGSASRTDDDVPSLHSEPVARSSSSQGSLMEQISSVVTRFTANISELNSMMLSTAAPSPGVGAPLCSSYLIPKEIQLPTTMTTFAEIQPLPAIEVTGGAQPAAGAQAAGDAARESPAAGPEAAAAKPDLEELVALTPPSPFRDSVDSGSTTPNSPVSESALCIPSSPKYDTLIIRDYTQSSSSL

SMILES | fluorescence change in response to application of compound [1, 3] | dose-response of peak fluorescence [1, 4] | IP1 levels on treatment with compound [2, 5] | dose-response of IP1 levels [2, 6] | dose-response of peak fluorescence [1] | fluorescence change in response to application of compound [1] | fluorescence change in response to compound [1] | IP1 levels on treatment with compound [2] | dose-response of IP1 levels [2]
NC1(C(=O)O)CCC(C(=O)O)C1 (stereo not drawn) [1S,3R-ACPD, 1-amino-cyclopentyl-1,3-dicarboxylic acid] | increased | magnitude of the peak fluorescence increased with increasing concentration | detectable increases in IP1 levels | IP1 levels increased with increasing concentration | – | – | – | – | –
N[C@@H](Cn1oc(=O)[nH]c1=O)C(=O)O [quisqualate] | – | – | – | – | magnitude of the peak fluorescence increased with increasing concentration | increased | increased | detectable increases in IP1 levels | IP1 levels increased with increasing concentration
N[C@@H](CCC(=O)O)C(=O)O [glutamate] | increased | magnitude of the peak fluorescence increased with increasing concentration | detectable increases in IP1 levels | IP1 levels increased with increasing concentration | – | – | – | – | –
